Reference: patent US8383637B2, “2-amino-quinazoline derivatives useful as inhibitors of β-secretase (BACE)” (Jansssen Pharmaceutica N.V., priority 2004, dated 2013)
Several values for one entry are separate records, joined by “and”; a condition that tells them apart may be missing. Identical values can stand only once.

Legend:
Type in all cases: biochemical
[1] = target: T1, β-secretase(BACE) (Homo sapiens, UniProt P56817); assay: BACE FS1% Inhibition Assay; settings: FS1 substrate; for inhibition at 3 µM: read-out: % Inhibition (FS) 3 μM; for inhibition at 10 µM: 10 μM test compound, read-out: % Inhibition (FS) 10 μM; for inhibition at 0.3 µM: read-out: % Inhibition (FS) 0.3 μM; for inhibition at 1 µM: read-out: % Inhibition (FS) 1 μM
T1 construct: purchased Panvera
T1 sequence (P56817 46-501): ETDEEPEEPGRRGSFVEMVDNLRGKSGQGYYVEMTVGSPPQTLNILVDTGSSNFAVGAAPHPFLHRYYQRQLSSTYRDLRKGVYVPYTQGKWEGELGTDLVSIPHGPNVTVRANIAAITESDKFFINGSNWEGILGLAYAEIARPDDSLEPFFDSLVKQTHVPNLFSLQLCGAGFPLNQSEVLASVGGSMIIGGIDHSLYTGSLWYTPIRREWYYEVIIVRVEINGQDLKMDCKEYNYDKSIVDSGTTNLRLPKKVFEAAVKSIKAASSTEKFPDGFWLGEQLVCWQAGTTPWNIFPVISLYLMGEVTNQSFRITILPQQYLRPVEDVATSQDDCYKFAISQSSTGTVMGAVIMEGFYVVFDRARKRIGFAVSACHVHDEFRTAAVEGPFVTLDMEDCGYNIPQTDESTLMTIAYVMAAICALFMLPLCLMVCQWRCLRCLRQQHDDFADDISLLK
Summary of the method: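 Human BACE (4 μg/mL working solution) preincubated 20 min at room temperature with compound, then FS1 substrate (300 μg/mL working solution) added and incubated 1 h at room temperature. Percent inhibition calculated at each compound concentration against blank and vehicle controls.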

[2] = target: T1, β-secretase(BACE); assay: BACE Assay-2 (FS1 substrate, IC50 and Ki); settings: procedure of Example 159, FS1 substrate; read-out: Ki μM (159)
[3] = target: T1, β-secretase(BACE); assay: BACE Assay-1 (MCA-substrate, IC50); settings: procedure of Example 158; read-out: IC50 μM (158)
Procedure: The following standards are reagents were used in this assay: Sodium Citrate trisodium salt dihydrate (Sigma), Citric Acid monohydrate (Merck), PEG8000 (Sigma), MCA-substrate (Bachem), β-secretase (BACE) (Panvera), 96-well plate zwart (Costar (Elscolab)), StatVal (Bachem).
The following standard assay buffer solution was prepared and used in this assay: 0.05 M, pH 5.0 mixture of sodium citrate trisodium salt dihydrate (9.56 g), citric acid monohydrate (3.68 g) and PEG8000 (0.50 g).
The MCA-substrate stock solution was prepared by mixing 10 mg MCA-substrate with 5 mL DMSO for a final solution concentration of 2.0 mg/mL. The substrate work solution was prepared by mixing 0.1 mL substrate in 1.90 mL assay buffer for a final concentration of 0.05 mM. The β-secretase (BACE) work solution was prepared by mixing 8 μL BACE in 2 mL assay buffer for a final concentration of 10 μg/mL.
The screen procedure for this assay was as follows. 60 μL of assay buffer was pippeted into each well of a 96-well plate. To each well was then pipetted 1 μL of test compound at the selected concentration. To each well was then added 20 μL of the β-secretase work solution and 20 μL of the MCA-substrate stock solution.
The procedure for the blank was as follows. 80 μL of assay buffer was pipetted into each well to be used as a blank control. To each well was then added 1 μL of DMSO and 20 μL of MCA-substrate solution in each well.
The procedure for the positive control was as follows. 60 μL of assay buffer was pipetted into each well to be used as a positive control. To each well was then added 1 μL of DMSO, 20 μL of BACE work solution and 20 μL of MCA-substrate stock solution.
For test compounds, measured at multiple concentrations, the measured T0 and T60 values were used to calculate an IC50 value using Graphpad Software (or PIR).

Row | Compound | inhibition at 3 µM ([1]; 3 μM test compound) | inhibition at 10 µM [1] | Ki [2] | IC50 [3] | inhibition at 0.3 µM ([1]; 0.3 μM test compound) | inhibition at 1 µM ([1]; 1 μM test compound) | % Inhibition (FS) 0.3 μM ([1]; 0.3 μM test compound, 0.3 µM) | % Inhibition (FS) 1 μM ([1]; 1 μM test compound, 1 µM) | % Inhibition (FS) 3 μM ([1]; 3 μM test compound, 3 µM)
1 | NC1=Nc2ccc(Oc3ccccc3)cc2CN1CCNC(=O)NC1CCCCC1 [Compound 215] | 106% | – | 0.4 µM | 0.23 µM | 39% | 71% | – | – | –
2 | CCCC(CCC(=O)NC1CCCCC1)N1Cc2cc(Oc3ccccc3)ccc2N=C1N (stereo not drawn) [Compound 129] | 113% | 113% | 0.12 µM | 0.1 µM | – | – | – | – | –
3 | COC1CCCC(C(=O)NCCN2Cc3cc(Oc4ccccc4)ccc3N=C2N)C1 (stereo not drawn) [Compound 219] | 108% | – | 0.17 µM | 0.31 µM | 51% | 85% | – | – | –
4 | COc1ccc(C(CCC(=O)N(C)C2CCCCC2)N2Cc3cc(Oc4ccccc4)ccc3N=C2N)cc1 (stereo not drawn) [Compound 298] | 110% | – | 0.23 µM | 0.22 µM | < 30% | 75% | – | – | –
5 | COc1ccccc1-c1ccc2c(c1)CN(C(CCC(=O)N(C)C1CCCCC1)C1CCCCC1)C(N)=N2 (stereo not drawn) [Compound 227] | 116% | – | 0.065 µM | 0.043 µM | 86% | 109% | – | – | –
6 | NC1=Nc2ccc(Oc3ccccc3)cc2CN1CCNC(=O)C1(c2ccc(Cl)cc2)CCCC1 [Compound 196] | 120% | – | 0.11 µM | 0.015 µM | 65% | 96% | – | – | –
7 | CCCCC(CC)C(=O)NCC(C1CCCCC1)N1Cc2cc(Oc3ccccc3)ccc2N=C1N (stereo not drawn) [Compound 303] | 109% | – | 0.24 µM | 0.062 µM | < 30% | 70% | – | – | –
8 | Cc1noc(C)c1-c1ccc2c(c1)CN(Cc1cccc(C(=O)N(C)C3CCCCC3)c1)C(N)=N2 [Compound 159] | 92% | – | 0.28 µM | 0.89 µM | 34% | 65% | – | – | –

More lines, in order of falling Ki [2], values ahead:

Row | inhibition at 3 µM ([1]; 3 μM test compound) | inhibition at 10 µM [1] | Ki [2] | IC50 [3] | inhibition at 0.3 µM ([1]; 0.3 μM test compound) | inhibition at 1 µM ([1]; 1 μM test compound) | % Inhibition (FS) 0.3 μM ([1]; 0.3 μM test compound, 0.3 µM) | % Inhibition (FS) 1 μM ([1]; 1 μM test compound, 1 µM) | % Inhibition (FS) 3 μM ([1]; 3 μM test compound, 3 µM) | Compound
9 | 109% | 126% | 0.27 µM | 0.079 µM | – | – | – | – | – | CN(C(=O)CCCCN1Cc2cc(Oc3cccc(NS(=O)(=O)c4ccccc4)c3)ccc2N=C1N)C1CCCCC1 [Compound 114]
10 | 107% | – | 0.23 µM | 0.062 µM | – | – | <30% and 54% | 66% and 97% | 115% | CCC(c1cccc(C(=O)N(C)C2CCCCC2)c1)N1Cc2cc(Oc3ccccc3)ccc2N=C1N (stereo not drawn) [Compound 204, 3-[1-(2-Amino-6-phenoxy-4H-quinazolin-3-yl)-propyl]-N-cyclohexyl-N-methyl-benzamide]
11 | 79% | 102% | 0.18 µM | 0.16 µM | – | – | – | – | – | CCCC(CCC(=O)N(CC)C1CCCCC1)N1Cc2cc(Oc3ccccc3)ccc2N=C1N (stereo not drawn) [Compound 127]
12 | 102% | – | 0.12 µM | 0.54 µM | 51% | 78% | – | – | – | COc1ccc(NC(=O)C(C)(C)C)c(-c2ccc3c(c2)CN(Cc2cccc(C(=O)N(C)C4CCCCC4)c2)C(N)=N3)c1 [Compound 160]
13 | 118% | – | 0.02 µM | 0.016 µM | 94% | 109% | – | – | – | NC1=Nc2ccc(Oc3ccccc3)cc2CN1C(CNC(=O)C1CCCCC1)C1CCCCC1 (stereo not drawn) [Compound 294, Cyclohexanecarboxylic acid [2-(2-amino-6-phenoxy-4H-quinazolin-3-yl)-2-cyclohexyl-ethyl]-amide]
